Experimental data published in patent publication US20150328109A1, “DERMAL COMPOSITIONS CONTAINING UNNATURAL HYGROSCOPIC AMINO ACIDS” (MEDPHARM LIMITED, priority 2012, published 2015).

How the values were obtained:
[1] = Snake study: water uptake into snake skin after treatment with amino acid solution; parameters: species or system Elaphe guttata, the American corn snake; conditions: 24 h treatment with 1.33M amino acid solution, dried, then 40% RH
Protocol: • All experiments were performed in triplicate (i.e. three separate solutions, three pieces of skin, one per solution). […] Each piece was weighed and placed directly into one the of the amino acid solutions, one piece of snake skin per solution. • After 1 hour, the snake skin was removed from the solution and blotted dry on filter paper. The weight of the snake skin was recorded before the same snake skin was returned to the amino acid solution. • After an additional 23 hours (24 hours in total), the snake skin was again blotted dry on filter paper and weighed. • The snake skin, now having absorbed the test amino acid, was then placed in a vacuum desiccator over silica (0% RH) for 48 hours before being weighed.
• A 10% w/w concentration solution of each compound is made by stirring the compound (100 mg) in water (1 mL). Three separate solutions of each compound are made separately so that the experiment can be carried out in triplicate simultaneously. […] The weight of the snake skin is recorded before the same snake skin is returned to the same compound solution. • After an additional 23 hours (24 hours in total), the snake skin is again blotted dry on filter paper and weighed. • The snake skin is then placed in a vacuum desiccator over silica (0% relative humidity (RH)) for 48 hours before being weighed. […]

[2] = system: RHE tissues; assay: RHE irritation assessment Method 2: Mattek's MTT effective time (ET-50) assay; type: cell-based, human; conditions: for ET-50 (exposure time to reduce viability to 50% of the control): 1% w/v N-H-G in water, dosing periods 2, 6 and 24 h
Excerpt: Method 1 was used to investigate the potential for alpha-hydroxylglycine (α-H-G) and L-homoserine (L-h-S) to cause skin irritation. The protocol is primarily designed and validated for single compounds rather than solutions. Therefore to provide further insight into the potential of N-hydroxyserine and N-hydroxylglycine to cause skin irritation a second protocol was investigated using Mattek's MTT effective time (ET-50) assay which is designed to test mixtures of compounds. In addition two commercially available amino acid related compound (L-serine and glycine) were selected and tested as comparators for N-hydroxyserine and N-hydroxylglycine. […] As a general guideline, the following groupings can be used in assigning expected in vivo irritancy responses based on the ET-50 results obtained: The irritation assessment of the solutions was performed using the protocol described below. Each of the test solutions; […] Damaged tissues were discarded. • (iii) The tissue were transferred into the assay medium and incubated at 37° C., 5% CO2 until the application of the test solutions; […] The working MTT solution was prepared using the following procedure: • (i) MTT concentrate was removed from the freezer and allowed to thaw. The concentrate was diluted with the MTT diluent solution (1 mL of concentrate to 4 mL of MTT diluent solution). • (ii) MTT solution from Step (i) was centrifuged at a g-force of 300 for 5 min to remove any particulates. • (iii) The supernatant of the MTT solution from Step (ii) was stored in the dark at 4° C. for a maximum period of 24 h and used as required. […] The plates were incubated for 3 h (+/−5 min) at 37° C., 5% CO2 and 95% humidified atmosphere. • (vi) The treated tissues were subsequently transferred into a new plate filled with 1 mL of extractant solution. • (vii) The plates were sealed using Parafilm® to stop evaporation and protected from light using foil before extract at 2-8° C. to minimise evaporation. • (viii) Following extraction the RHE tissue were removed from the wells and an additional 1 mL of extractant solution was added. Using a pipette the extraction solution was mixed and made visually homogenous. • (ix) The solution from Step (viii) was transferred in to n=3 wells (200 μL per well) using an automatic pipette of a 96 well plate and the optical density was measured at a wavelength of 570 nm.

[3] = system: Normal RHE tissue; assay: Tissue viability (MTT) of normal RHE tissue during 6 day treatment; type: cell-based, human; conditions: 10% w/v, n = 1
Protocol: In this investigation two types of RHE tissues were used, which were healthy and psoriatic tissue sourced from the MatTek Corporation (Ashland, Mass.). For simplicity the protocol below refers to both tissue types as RHE tissues and all media as assay medium as both tissues were treated in the same manner. The only exception was that two different types of media were required for the different types of tissue (healthy and psoriatic tissues).
• (i) At the end of the equilibration period, the media for each well was removed then the tissues were lifted and placed on culture stands and fresh pre-warmed (37° C.) assay medium (5 mL) was added to the well. • (ii) Using a positive displacement pipette, the test solutions 10% w/v, N-H-S(N-hydroxyserine) in water, […], N-H-G (N-hydroxyglycine) in water, 10% w/v, L-h-S (L-homoserine) in water and 10% w/v, combination 1:1:1 (N-H-S:N-H-G: L-h-S) in water were dispensed (50±0.5 μL) onto the top of the RHE tissue. The solutions or controls were then distributed over the surface of the RHE tissues using a sterile glass rod. • (iii) The lid was placed on the well plate containing the RHE tissue and the tissues were returned to the incubator (37° C., 5% CO2) 48 h between applications.
• (i) Every 48 h culture media for the RHE tissues was removed from the 6 well plates and transferred into tubes stored (−20° C.) for cytokine analysis. • (ii) Fresh pre-warmed (37° C.) assay medium (5 mL) was added to each tissue using an automatic pipette. • (iii) From each treatment 1 tissue was removed for viability assessment. • (iv) The RHE tissues were subsequently rinsed with 100 μL of PBS to remove the residual solution from the epidermal surface. • (v) Using a positive displacement pipette, the solutions 10% w/v, N-H-S in water, 1% w/v, N-H-G in water, 10% w/v, L-h-S in water and 10% w/v, combination 1:1:1 (N-H-S:N-H-G:L-h-S) were dispensed (50±0.5 μL) onto the top of the RHE tissue. The solutions or controls were then distributed over the surface of the RHE tissues using a sterile glass rod. • (vi) The lid was placed on the well plate containing the RHE tissue and the tissues were returned to the incubator (37° C., 5% CO2) 48 h between applications at t=0, 48 and 96 h.
To determine the viability of the RHE tissue post application of the solutions and controls, the following procedure was used: • (i) The required wells in 24-well plates were filled with 300 μL MTT solution and protected from light. • (ii) The tissues were removed from the post treatment incubation plates and excess solutions and controls were removed with sterile cotton swabs. • (iii) The RHE tissue was subsequently rinsed with 1000 μL of PBS five times to remove the residual solution from the epidermal surface. • (iv) The tissue from Step (iii) was blotted dry with cotton swabs. • (v) The treated tissues from Step (iv) were transferred into wells in 24-well plates pre-filled with MTT solution (300 μL). The plates were incubated for 3 h (+/−5 min) at 37° C., 5% CO2 and 95% humidified atmosphere. • (vi) The treated tissues were subsequently transferred into a new plate filled with 1 mL of extractant solution. • (vii) The plates were sealed using Parafilm® to stop evaporation and protected from light using foil before extract at 2-8° C. to minimise evaporation. • (viii) Following extraction the RHE tissue were removed from the wells and an additional 1 mL of extractant solution was added. Using a pipette the extraction solution was mixed and made visually homogenous. • (ix) The solution from Step (viii) was transferred in to n=3 wells (200 μL per well) using an automatic pipette of a 96 well plate and the optical density was measured at a wavelength of 570 nm.

| Compound | average percentage weight increase after 24 h at 40% RH [1] | ET-50 (exposure time to reduce viability to 50% of the control) ([2]; 10% w/v N-H-S) [h] | ET-50 (exposure time to reduce viability to 50% of the control) ([2]; 10% w/v N-H-S, listed as N-H-S) [h] | expected in vivo irritancy from ET-50 ([2]; 10% w/v N-H-S, 1% w/v N-H-G, 10% w/v L-Serine, 10% w/v Glycine in water) | Normal RHE tissue viability as a percentage of untreated control (%) ([3]; 2 days in treatments) | Normal RHE tissue viability as a percentage of untreated control (%) ([3]; 4 days in treatments) | Normal RHE tissue viability as a percentage of untreated control (%) ([3]; 6 days in treatments) | impact on the viability of the RHE tissues ([2]; dosing periods t=2, 6 and 24 h, 1% w/v N-H-G, 10% w/v L-Serine, 10% w/v Glycine) |
| --- | --- | --- | --- | --- | --- | --- | --- | --- |
| N[C@@H](CCO)C(=O)O [L-homoserine] | particularly advantageous properties | – | – | – | – | – | – | – |
| O=C(O)[C@H](CO)NO [N-hydroxyserine] | – | 12 to 24 | 22.8 | very mild (12-24 very mild) | 83.4 | 91.5 | 86.9 | – |
| O=C(O)CNO [N-hydroxyglycine, N-Hydroxyglycine] | – | – | – | – | 97.9 | 91.5 | 93.3 | no significant impact |
